The target in data set [1] is T1, MDR1 (Homo sapiens, UniProt P08183).
T1 construct: lung squamous-cell carcinoma (SKMES) expressing high levels of MDR1 on the plasma membrane; endogenous in cells; host or cells: SKMES (lung squamous-cell carcinoma)
Briefly: MDR1-mediated accumulation of fluorescent calcein in A549 cells. The data set is classed as cell-based. As to conditions: A549 human lung adenocarcinoma cells; FIG. 3A. As to the method: (§1) The lung carcinoma cell lines A549 and SKMES are grown in RPMI, supplemented with 10% fetal calf serum (FCS), 2 mM glutamine (Gln), and antibiotics (Penicillin 100 UI/ml and Streptomycin 100 μg/ml). Cells are kept in a thermostat at a temperature of 37° C., in air saturated with water vapor, enriched with 5% CO2.
(§2) Once the growth medium has been removed from the cells, a PBS washing at 37° C. is carried out, and RPMI without phenol red containing antibiotics is added, 5% FCS, 10 mM HEPES and 2mM Glutamine in the presence/absence of Calcein AM or 1 μM Hoechst and possible inhibitors are added. At the end of the loading, two washings with cold PBS are carried out, RPMI without Calcein AM or Hoechst is added, and samples are read by using the fluorescence plate reader (Enspire, Perkin Elmer; A of excitation: 360 nm; λ of emission: 465 nm). The value provided by the instrument is proportional to the intracellular concentration of Calcein AM and Hoechst. Finally, the cells are treated with 5% TCA, followed by 0.5 N NaOH to solubilize the cells. The protein content is determined by the Bradford method, and it is used for normalizing the uptake values of Calcein AM and Hoechst. The accumulation of Calcein or Hoechst is therefore expressed as the fluorescence intensity/mg proteins.

Data set [2] concerns the target T1, MDR1. Briefly: MDR1-mediated accumulation of fluorescent calcein in SKMES cells. In kind it is cell-based. As to conditions: SKMES lung squamous-cell carcinoma cells; compared with PSC833; FIG. 3B. The procedure:
as §1, §2

In another data set the target is T2, ABCG2 (Homo sapiens, UniProt Q9UNQ0).
T2 construct: a model of human lung adenocarcinoma (H460) over-expressing such receptor; endogenous in cells; host or cells: H460 (human lung carcinoma)
T2 sequence (Q9UNQ0 1-655): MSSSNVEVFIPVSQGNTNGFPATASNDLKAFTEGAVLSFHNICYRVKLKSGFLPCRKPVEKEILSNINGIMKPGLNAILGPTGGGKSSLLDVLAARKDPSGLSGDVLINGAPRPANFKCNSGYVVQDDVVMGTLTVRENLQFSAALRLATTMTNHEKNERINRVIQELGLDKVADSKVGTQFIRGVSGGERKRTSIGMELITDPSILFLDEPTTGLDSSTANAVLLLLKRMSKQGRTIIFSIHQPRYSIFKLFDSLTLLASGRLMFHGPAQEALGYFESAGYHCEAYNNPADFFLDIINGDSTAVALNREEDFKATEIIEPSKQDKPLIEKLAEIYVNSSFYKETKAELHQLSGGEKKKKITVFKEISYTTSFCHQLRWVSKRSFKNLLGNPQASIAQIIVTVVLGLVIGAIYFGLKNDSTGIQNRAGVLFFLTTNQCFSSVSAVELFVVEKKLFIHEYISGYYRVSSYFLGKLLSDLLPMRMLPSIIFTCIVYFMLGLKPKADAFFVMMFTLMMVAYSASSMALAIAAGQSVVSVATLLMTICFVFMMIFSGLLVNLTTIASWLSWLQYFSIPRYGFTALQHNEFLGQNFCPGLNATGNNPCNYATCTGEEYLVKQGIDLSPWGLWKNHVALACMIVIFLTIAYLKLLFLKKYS
Briefly: ABCG2-mediated outflow of fluorescent Hoechst in H460 cells. As to conditions: H460 cells over-expressing ABCG2; FIG. 4. The data set is classed as cell-based. As to the method: as §2

Another data set concerns the target T3, ABCA1 (Mus musculus, UniProt P41233).
T3 construct: the expression of the ABCA1 protein on the plasma membrane was stimulated by adding 22-OH cholesterol and 9-cis-retinoic acid; endogenous in cells; host or cells: murine peritoneal macrophages (primary)
Kind of data set: ABCA1-mediated cholesterol outflow. In kind it is cell-based. The following applies: murine peritoneal macrophages, apolipoprotein A-I acceptor; FIG. 5B. The procedure: Murine peritoneal macrophages were seeded in da 24-well plates, each containing 10^6 cell/well in 10% RPMI of fetal bovine serum (FBS). After 24 h, following a PBS washing, the cells were incubated with radiolabeled medium containing [3H]-cholesterol at a concentration of 2 μCi/ml in a medium supplemented with FBS 2% in the presence of the inhibitor of the esterifying enzyme ACAT (SAH58035) at a final concentration of 2 μg/ml in order to maintain all the intracellular cholesterol in the free form and the ABCA1 substrate in the outflow process. At the completion of the 24-hour staining, after the PBS washing, the cells were incubated with an equilibration medium composed of RPMI, 0.2% albumin, and the ACAT inhibitor. […] The filtered medium was collected and transferred into a vial, together with the scintillation liquid for the subsequent reading at the β-counter for the measurement of the radioactivity present in the cultural medium, which is an index of the free cholesterol excreted by the cells. The outflow percentage is calculated on the total radioactivity which is present in the cell by the following formula: % outflow=(average cpm/total cpm of the monolayer)×100. Each experimental condition was carried out in triplicates, and data was expressed as mean±standard deviation.

The next data set has as its target T4, ABCG1 (Homo sapiens, UniProt P45844).
T4 construct: expressed in transfected cells; host or cells: CHO-L3 (derived from hamster ovary CHO-K1, which serves as control)
Briefly: ABCG1-mediated cholesterol outflow. In kind it is cell-based, hamster. The following applies: CHO-L3 over-expressing ABCG1 vs CHO-K1, HDL acceptor; FIG. 5A. As to the method: In order to assess the ABCG1-mediated outflow, control hamster ovary cells CHO-K1 and CHO-L3 over-expressing the ABCG1 protein in Ham's medium F12 with 10% FBS were seeded in parallel in sterile 24-well plates. After 24 h, both cell lines were labeled with 10% FBS medium containing 1 μCi/ml [3H]-cholesterol. At the end of the labelling period (24 h), both cell lines were washed with PBS and equilibrated during 90 minutes with medium supplemented with 0.2% albumin. At the end of the equilibration, the cells were treated in the absence or presence of our compound AIF1 during 2 hours, and incubated for the next 6 hours e with the cholesterol acceptors, HDLs, at a concentration of 12.5 μg/ml. The quantification of the tritiated cholesterol secreted by the cells in the medium was determined as described in the previous paragraph. In particular, the contribution of the ABCG1 transporter to the cholesterol outflow was calculated as the difference between the outflow percentages obtained from the cell line CHO-L3 over-expressing ABCG1 and those obtained from the control cell line CHO-K1. Each experimental condition was carried out in triplicates, and data was expressed as mean±standard deviation.

For another data set, the system named is SKMES cells. Kind of data set: Intracellular doxorubicin by confocal microscope. In kind it is cell-based, human. As to the method:
SKMES cells were seeded on cover glasses and incubated with culture medium in a thermostat for 24 h. […]
Images were taken by using a confocal microscope (LSM 510 Meta scan integrated with a reversed microscope Carl Zeiss, Jena Germany), with a 43×/1.30 oil immersion lens.
Fluorescence of doxorubicin was excited with a 488 nm argon laser and its emission was collected by a 530 nm filter. During the analysis of the various samples, the confocal settings (excitation, laser power, detection range, and pinhole size) were kept unaltered.

A further data set concerns tumoral cell. Kind of data set: Intracellular concentration of doxorubicin by LC-MS/MS. The following applies: after AIF1 treatment compared to untreated cells; FIG. 8. In kind it is cell-based. As to the method:
The intracellular content of Doxorubicin and AIF-1 may be determined by liquid chromatography-tandem mass spectrometry (LC-MS/MS) of samples extracted with absolute ethanol. In particular, after the treatment with the drugs, the culture medium is removed, and 3 washings of the cell monolayer with PBS are carried out. Then, the cells are incubated for ten minutes at room temperature with absolute ethanol, which is then analyzed by a LC-MS/MS technique. Values were normalized for the protein content assessed after solubilization of the cell monolayer with 0.5N NaOH and are expressed as pmoles/mg proteins.
Doxorubicin and AIF-1 concentrations in the samples of cell extracts were determined by liquid chromatography-tandem mass spectrometry (LCMS/MS) by using a mass spectrometer.
The samples extracted in ethanol were filtered on a 0.2 μm cellulose filter and analyzed by liquid chromatography-tandem mass spectrometry (LC-MS/MS). […]
The full scan mass spectra were recorded in the 250-900 m/z range, using a 0.1 stepsize and 1 s scan time in the positive ion mode for doxorubicin and atenolol (ATN, used as the internal standard) and in the negative ion mode for AIF1. […]

T1 sequence (P08183 whole entry): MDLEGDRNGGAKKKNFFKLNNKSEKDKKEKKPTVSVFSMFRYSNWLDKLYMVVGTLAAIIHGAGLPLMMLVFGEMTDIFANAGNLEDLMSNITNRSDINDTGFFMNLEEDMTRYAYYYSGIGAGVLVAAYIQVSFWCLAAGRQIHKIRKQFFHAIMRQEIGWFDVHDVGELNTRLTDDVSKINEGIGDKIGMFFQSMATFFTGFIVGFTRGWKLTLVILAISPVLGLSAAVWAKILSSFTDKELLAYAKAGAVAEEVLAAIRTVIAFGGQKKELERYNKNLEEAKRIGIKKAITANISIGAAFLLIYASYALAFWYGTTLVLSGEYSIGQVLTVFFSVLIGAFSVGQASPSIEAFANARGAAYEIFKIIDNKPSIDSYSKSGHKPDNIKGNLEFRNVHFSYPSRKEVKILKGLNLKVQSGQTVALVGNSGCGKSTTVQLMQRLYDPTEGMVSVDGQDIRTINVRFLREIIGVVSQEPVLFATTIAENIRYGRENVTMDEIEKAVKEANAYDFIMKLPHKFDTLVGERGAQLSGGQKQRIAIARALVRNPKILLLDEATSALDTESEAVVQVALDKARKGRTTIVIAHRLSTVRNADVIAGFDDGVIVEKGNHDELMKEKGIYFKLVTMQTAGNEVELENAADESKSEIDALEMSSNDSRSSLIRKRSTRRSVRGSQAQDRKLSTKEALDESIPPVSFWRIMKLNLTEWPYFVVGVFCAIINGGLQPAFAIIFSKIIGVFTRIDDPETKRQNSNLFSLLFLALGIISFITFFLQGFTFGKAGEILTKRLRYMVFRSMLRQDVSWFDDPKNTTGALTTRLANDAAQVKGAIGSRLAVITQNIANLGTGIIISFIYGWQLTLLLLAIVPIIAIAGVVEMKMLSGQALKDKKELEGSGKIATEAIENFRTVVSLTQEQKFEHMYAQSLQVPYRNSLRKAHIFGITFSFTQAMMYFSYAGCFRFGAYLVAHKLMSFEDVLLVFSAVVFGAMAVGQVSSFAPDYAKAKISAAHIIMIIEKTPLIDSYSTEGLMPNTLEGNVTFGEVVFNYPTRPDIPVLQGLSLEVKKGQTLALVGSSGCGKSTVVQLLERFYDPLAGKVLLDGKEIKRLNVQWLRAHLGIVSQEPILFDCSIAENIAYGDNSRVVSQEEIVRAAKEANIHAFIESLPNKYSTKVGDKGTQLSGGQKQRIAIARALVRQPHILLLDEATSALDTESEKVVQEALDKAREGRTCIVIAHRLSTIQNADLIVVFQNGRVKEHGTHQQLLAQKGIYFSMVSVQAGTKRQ
T3 sequence (P41233 whole entry): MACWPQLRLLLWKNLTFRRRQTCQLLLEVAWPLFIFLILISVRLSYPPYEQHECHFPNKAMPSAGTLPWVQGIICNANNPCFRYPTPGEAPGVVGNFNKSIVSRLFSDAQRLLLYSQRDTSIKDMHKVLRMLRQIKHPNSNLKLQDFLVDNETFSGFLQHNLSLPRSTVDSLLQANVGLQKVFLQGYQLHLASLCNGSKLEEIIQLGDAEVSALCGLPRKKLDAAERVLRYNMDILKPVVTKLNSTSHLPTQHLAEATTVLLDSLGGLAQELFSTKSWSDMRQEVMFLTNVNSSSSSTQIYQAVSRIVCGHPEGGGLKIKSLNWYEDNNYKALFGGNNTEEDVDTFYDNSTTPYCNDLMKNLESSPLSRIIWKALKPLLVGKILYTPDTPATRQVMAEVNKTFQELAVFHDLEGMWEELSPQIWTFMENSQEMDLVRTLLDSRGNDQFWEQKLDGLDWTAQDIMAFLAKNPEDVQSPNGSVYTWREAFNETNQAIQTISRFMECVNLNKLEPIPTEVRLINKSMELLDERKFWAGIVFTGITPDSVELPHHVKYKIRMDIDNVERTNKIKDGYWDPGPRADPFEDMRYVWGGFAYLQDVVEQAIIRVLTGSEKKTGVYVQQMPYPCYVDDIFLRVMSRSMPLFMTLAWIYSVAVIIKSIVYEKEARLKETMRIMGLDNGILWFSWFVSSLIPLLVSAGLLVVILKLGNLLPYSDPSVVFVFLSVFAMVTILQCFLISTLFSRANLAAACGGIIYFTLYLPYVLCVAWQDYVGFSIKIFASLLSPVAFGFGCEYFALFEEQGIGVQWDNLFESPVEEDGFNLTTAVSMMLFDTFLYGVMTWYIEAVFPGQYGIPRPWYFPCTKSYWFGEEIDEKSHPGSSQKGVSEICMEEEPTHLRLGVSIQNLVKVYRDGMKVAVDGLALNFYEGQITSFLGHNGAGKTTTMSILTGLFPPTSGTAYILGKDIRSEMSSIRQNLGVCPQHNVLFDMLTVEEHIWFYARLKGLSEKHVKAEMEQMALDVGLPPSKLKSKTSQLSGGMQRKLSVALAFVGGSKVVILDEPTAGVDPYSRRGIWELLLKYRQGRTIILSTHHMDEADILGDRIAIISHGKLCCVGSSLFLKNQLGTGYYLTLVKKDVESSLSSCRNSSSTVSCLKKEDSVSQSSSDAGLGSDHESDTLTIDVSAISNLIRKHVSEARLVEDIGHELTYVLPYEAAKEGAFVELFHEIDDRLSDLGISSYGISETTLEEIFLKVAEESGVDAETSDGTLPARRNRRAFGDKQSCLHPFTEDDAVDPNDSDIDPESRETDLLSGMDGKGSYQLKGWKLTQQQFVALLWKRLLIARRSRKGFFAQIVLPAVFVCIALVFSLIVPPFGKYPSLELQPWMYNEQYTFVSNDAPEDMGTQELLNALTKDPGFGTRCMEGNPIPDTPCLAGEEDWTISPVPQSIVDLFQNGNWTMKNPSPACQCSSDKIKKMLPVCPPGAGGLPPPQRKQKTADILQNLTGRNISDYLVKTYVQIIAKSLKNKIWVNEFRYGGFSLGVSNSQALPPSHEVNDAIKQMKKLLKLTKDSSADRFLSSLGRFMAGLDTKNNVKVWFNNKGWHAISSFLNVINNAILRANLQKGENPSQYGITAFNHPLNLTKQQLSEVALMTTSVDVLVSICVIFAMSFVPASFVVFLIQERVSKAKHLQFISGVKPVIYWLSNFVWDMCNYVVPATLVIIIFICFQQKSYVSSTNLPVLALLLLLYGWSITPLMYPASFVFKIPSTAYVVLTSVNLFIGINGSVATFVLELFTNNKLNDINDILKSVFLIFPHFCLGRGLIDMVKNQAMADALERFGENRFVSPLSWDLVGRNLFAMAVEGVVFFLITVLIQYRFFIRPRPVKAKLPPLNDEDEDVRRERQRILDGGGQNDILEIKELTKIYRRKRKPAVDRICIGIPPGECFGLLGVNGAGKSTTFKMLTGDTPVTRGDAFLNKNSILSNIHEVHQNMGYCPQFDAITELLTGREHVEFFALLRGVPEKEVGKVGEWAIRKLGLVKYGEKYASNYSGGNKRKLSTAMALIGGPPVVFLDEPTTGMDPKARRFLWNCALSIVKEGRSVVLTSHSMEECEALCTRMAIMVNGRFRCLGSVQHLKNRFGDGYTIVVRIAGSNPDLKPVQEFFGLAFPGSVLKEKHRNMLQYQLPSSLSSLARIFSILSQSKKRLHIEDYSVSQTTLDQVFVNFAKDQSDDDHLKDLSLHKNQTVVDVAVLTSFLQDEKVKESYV

`CC(C)(Sc1cc(C(C)(C)C)c(OC(=O)CCC(=O)O)c(C(C)(C)C)c1)Sc1cc(C(C)(C)C)c(OC(=O)CCC(=O)O)c(C(C)(C)C)c1` [AIF1]: the “intracellular concentration of calcein (MDR1-mediated cell outflow of fluorescent calcein)” value at MDR1 [1] is “significantly and dose-dependent increases”. Also, the “effect on MDR1-mediated accumulation of fluorescent calcein” value on MDR1 [2] is given as “highly effective”. In addition, the “accumulation/extrusion of fluorescent Hoechst (ABCG2 substrate)” value at ABCG2 is recorded as “did not show any effect”. In addition, on ABCA1, the “outflow of cholesterol mediated by ABCA1” value is listed as “does not show any effect”. For the same molecule, the “outflow of cholesterol mediated by ABCG1” value on ABCG1 is on record as “does not show any effect”. In addition, the “intracellular fluorescent signal of doxorubicin” value in the data set on SKMES cells (after 60 and 90 minutes of doxorubicin in the presence of AIF1, FIGS. 7B, 7C) is “remains almost unaltered”; in the data set on SKMES cells (after 30 minutes doxorubicin, vs cells not treated with the compound, FIG. 7A), “considerably increased”. In addition, the “concentration of intracellular doxorubicin” value in the data set with tumoral cell is reported as “significantly higher”.

The values are drawn from patent US20170224647A1, “NEW MDR1 INHIBITORS FOR OVERCOMING MULTIDRUG RESISTANCE” (UNIVERSITA' DEGLI STUDI DI PARMA, priority 2014, published 2017).
